Results from patent US3980794A, “Method for promoting growth of poultry with 3-(5-nitro-2-imidazolyl)pyrazoles” (Eli Lilly and Company, priority 1975, dated 1976).
Converted amounts (≈) assume the structure as drawn. Where two headings read alike, the source gives them in different places.

Key:
[1] = test system: Bacteroides fragilis sp. vulgatus 1563; test: Susceptibility of anaerobic bacteria, agar dilution; type: cell-based; settings: 24 h, read-out: 24 Hr. Minimum Inhibitory Concentration
[2] = test system: Bacteroides fragilis sp. fragilis 1936B; test: as above; type: cell-based; settings: 24 h, read-out: 24 Hr. Minimum Inhibitory Concentration
[3] = test system: Propionibacterium acnes 79; test: as above; type: cell-based; settings: read-out: 24 Hr. Minimum Inhibitory Concentration
Salmonella typhimurium = test: Control of infections caused by Salmonella typhimurium in chickens, subcutaneous (Experiment 2); type: in vivo; settings: Salmonella enterica, sc, 144 h, 6 days, read-out: Survival Ratio (converted); for responders at 3.75 mg/kg: 3.75 mg./kg. subcutaneous; for responders at 7.5 mg/kg: 7.5 mg./kg. subcutaneous; for responders at 15 mg/kg: 15 mg./kg. subcutaneous; for responders at 30 mg/kg: 30 mg./kg. subcutaneous; for responders at 60 mg/kg: 60 mg./kg. subcutaneous
Pasteurella multocida = test: Efficacy against Pasteurella multocida infections in mice when administered by injection (Experiment 1); type: in vivo, Swiss mice; settings: ip; for responders at 2.5 mg/kg: 2.5 mg./kg. i.p.; for responders at 5 mg/kg: 5.0 mg./kg. i.p.; for responders at 7.5 mg/kg: 7.5 mg./kg. i.p.
Procedure: The efficacy of the novel compounds against Pasteurella multocida infections in mice when administered by injection was studied.
Female Swiss mice weighing from 15 to about 20 g. were used. The test compound, 5.0 mg., was weighed out and dissolved in 0.5 ml. of dimethyl sulfoxide, and this solution was added to 9.5 ml. of sodium carboxymethylcellulose suspension. Groups of five mice each were injected intraperitoneally with 0.1 ml. each of the above-prepared test composition. This preparation gave a test rate of 2.5 mg. per kilo of body weight of mouse. The compounds were tested at 2.5, 5.0, or 7.5 mg. per kilo of body weight of mouse, and the test preparations for rates of 5.0 and 7.5 mg./kg. were prepared in a similar manner. Immediately after receiving the test compound, the mice were challenged using log10 dilutions of 10^-^4, 10^-^5, 10^-^6, and 10^-^7 of a 16 to 20-hour tryptose broth culture of Pasteurella multocida at 0.1 ml. per mouse subcutaneously. Similar groups of nontreated control mice were also challenged, the challenge being administered subcutaneously. The groups of mice were observed daily for mortality and the total mortality in treated groups compared with that which occurred in the nonmedicated control groups. Each test compound is identified by the number of the example describing its preparation.
In the chart, column 1 lists the test compound; column 2, the dosage of test compound in mg./kg. of mouse body weight; column 3, the dilution of the challenge organism; and column 4, the ratio of the number of mice surviving the test at each dosage and challenge dilution to the number of mice tested at each dosage and challenge dilution, called the survival ratio.

[4] = test system: Clostridium septicum bovine; test: Susceptibility of anaerobic bacteria, agar dilution; type: cell-based; settings: 24 h, read-out: 24 Hr. Minimum Inhibitory Concentration
[5] = test system: Clostridium septicum 1128; test: as above; type: cell-based; settings: 24 h, read-out: 24 Hr. Minimum Inhibitory Concentration
[6] = challenge dilution 10^-^4, read-out: Survival Ratio (converted)
[7] = challenge dilution 10^-^5, read-out: Survival Ratio (converted)
[8] = challenge dilution 10^-^6, read-out: Survival Ratio (converted)
[9] = challenge dilution 10^-^7, read-out: Survival Ratio (converted)
[10] = challenge dilution 10^-^4, read-out: Survival Ratio
[11] = challenge dilution 10^-^5, read-out: Survival Ratio
[12] = challenge dilution 10^-^6, read-out: Survival Ratio
[13] = Bacteroides fragilis sp. vulgatus 1563
[14] = Bacteroides fragilis sp. fragilis 1936B
[15] = Cutibacterium acnes, 24 h, Propionibacterium acnes 79

Row | SMILES | MIC ([1]; Bacteroides fragilis) [µg/mL] | MIC ([2]; Bacteroides fragilis) [µg/mL] | MIC ([3]; Cutibacterium acnes, 79, 24 h) [µg/mL] | responders at 3.75 mg/kg (Salmonella typhimurium) [%] | responders at 7.5 mg/kg (Salmonella typhimurium) [%] | responders at 15 mg/kg (Salmonella typhimurium) [%] | responders at 30 mg/kg (Salmonella typhimurium) [%] | responders at 60 mg/kg (Salmonella typhimurium) [%] | responders at 2.5 mg/kg (Pasteurella multocida; [6]) [%] | responders at 2.5 mg/kg (Pasteurella multocida; [7]) [%] | responders at 2.5 mg/kg (Pasteurella multocida; [8]) [%] | responders at 5 mg/kg (Pasteurella multocida; [6]) [%] | responders at 5 mg/kg (Pasteurella multocida; [7]) [%] | responders at 5 mg/kg (Pasteurella multocida; [8]) [%] | responders at 7.5 mg/kg (Pasteurella multocida; [10]) [%] | responders at 7.5 mg/kg (Pasteurella multocida; [11]) [%] | responders at 7.5 mg/kg (Pasteurella multocida; [12]) [%] | MIC [4] [µg/mL] | MIC [5] [µg/mL] | MIC [1, 13] [µg/mL] | also measured
1 | Cn1nc(-c2ncc([N+](=O)[O-])n2C)c(C#N)c1N [Compound 1, 5-Amino-1-methyl-3-(1-methyl-5-nitro-2-imidazolyl)pyrazole-4-carbonitrile] | < 0.125 | < 0.125 | < 0.125 | 44 | 62.9 | 72 | 54 | 67.1 | 10 | 40 | 80 | 30 | 90 | 90 | 70 | 90 | 100 | < 0.125 | < 0.125 |  | responders at 2.5 mg/kg (Pasteurella multocida; [9]): 95%; responders at 5 mg/kg (Pasteurella multocida; [9]): 100%
2 | Cn1nc(-c2ncc([N+](=O)[O-])n2C)c(C(N)=O)c1N [Compound 2, 5-Amino-1-methyl-3-(1-methyl-5-nitro-2-imidazolyl)pyrazole-4-carboxamide] | < 0.125 | < 0.125 | < 0.125 |  | 0 | 40 | 44 | 46.7 | 50 | 90 | 100 |  |  |  |  |  |  | < 0.125 | < 0.125 |  | 
3 | COC=Nc1c(C#N)c(-c2ncc([N+](=O)[O-])n2C)nn1C [Compound 6, Methyl N-[4-cyano-1-methyl-3-(1-methyl-5-nitro-2-imidazolyl)pyrazol-5-yl]formimidate] | < 0.125 | < 0.125 | < 0.125 | 80 | 90 | 50 | 50 | 46.7 | 90 | 50 | 90 | 80 | 90 | 100 | 90 | 90 | 100 | < 0.125 | < 0.125 |  | responders at 2.5 mg/kg (Pasteurella multocida; [9]): 100%
4 | CCCCOC=Nc1c(C#N)c(-c2ncc([N+](=O)[O-])n2C)nn1C [Compound 7, Butyl N-[4-Cyano-1-methyl-3-(1-methyl-5-nitro-2-imidazolyl)-pyrazol-5-yl]formimidate] | < 0.125 | < 0.125 | < 0.125 |  | 0 | 55 | 40 | 55 | 15 | 35 | 70 | 30 | 45 | 75 | 50 | 70 | 100 | < 0.125 | < 0.125 |  | 
5 | CC(=O)Nc1c(C(=O)O)c(-c2ncc([N+](=O)[O-])n2C)nn1C [Compound 12, 5-acetamido-1-methyl-3-(1-methyl-5-nitro-2-imidazolyl)pyrazole-4-carboxylic acid] |  |  |  |  |  |  |  |  |  |  |  | 0 | 30 | 70 |  |  |  | 8 (≈ 26 µM) | 4 (≈ 13 µM) | 1 (≈ 3.24 µM) | MIC [2, 14]: 16 µg/mL (≈ 51.9 µM); MIC [3, 15]: 1 µg/mL (≈ 3.24 µM)
6 | C=CCOC=Nc1c(C#N)c(-c2ncc([N+](=O)[O-])n2C)nn1C [Compound 13A, Allyl N-[4-cyano-1-methyl-3-(1-methyl-5-nitro-2-imidazolyl)pyrazol-5-yl]formimidate] |  |  |  | 40 | 46.7 | 53.3 | 33.3 | 50 |  |  |  | 60 | 80 | 100 |  |  |  | 0.5 (≈ 1.59 µM) | 0.5 (≈ 1.59 µM) | 0.25 (≈ 0.793 µM) | MIC [2, 14]: 2 µg/mL (≈ 6.34 µM); MIC [3, 15]: < 0.125 µg/mL
7 | CCCCC(CC)COC=Nc1c(C#N)c(-c2ncc([N+](=O)[O-])n2C)nn1C (stereo not shown) [Compound 13D, 2-Ethylhexyl N-[4-cyano-1-methyl-3-(1-methyl-5-nitro-2-imidazolyl)pyrazol-5-yl]formimidate] |  |  |  |  |  | 10 | 10 | 33.3 | 30 | 70 | 90 | 90 | 100 | 100 | 100 | 100 | 100 | 4 (≈ 10.3 µM) | 2 (≈ 5.16 µM) | 0.5 (≈ 1.29 µM) | MIC [2, 14]: 0.5 µg/mL (≈ 1.29 µM); MIC [3, 15]: 2 µg/mL (≈ 5.16 µM)
